Among the data in patent publication EP4775208A1, “USE OF PRMT5 INHIBITOR IN TREATMENT OF TUMORS OR CANCERS” (Apeiron Therapeutics (Hong Kong) Ltd., priority 2023, dated 2025) are IC50 values, retold here.

The data set concerns the target hERG ion channel (Homo sapiens, UniProt Q12809). The experiment in a line: hERG ion channel inhibition experiment (manual patch clamp, HEK293). Particulars: HEK293 cells stably expressing hERG, n=2. Format: cell-based. The procedure: III. hERG Ion Channel Inhibition Experiment
The compounds used in this experiment are specific embodiments of the present invention, with reference to compound AMG473 as an example from Amgen's patent WO 2022/169948A1, identified as example 473.
2. Cell Line and Cell Culture
Stably expressing hERG ion channel HEK293 cell line (Catalog: K1236) was purchased from Invitrogen. This cell line was cultured in a medium containing 85% DMEM, 10% dialyzed fetal bovine serum, 0.1 mM non-essential amino acid solution, 100 U/mL penicillin-streptomycin solution, 25 mM HEPES, 5 µg/mL blasticidin, and 400 µg/mL geneticin. […]
• 1) Place glass slides containing HEK293 cells in the perfusion chamber of the micro-manipulation station. • 2) Under an Olympus IX71 or IX73 inverted microscope, position suitable cells in the central field of view using a ×10 objective. […] The peak of the tail current represents the size of the hERG current. • 9) The hERG current induced by the test compound is continuously recorded for 120 seconds before administration to assess the stability of the tested cells in producing hERG currents. […] Record the last 5 hERG current values after the recorded current stabilizes, and take their average as the final current value at a specific concentration. […]

By IC50 is commonly meant the concentration that gives 50% inhibition.

hERG ion channel, sequence (Q12809 whole entry): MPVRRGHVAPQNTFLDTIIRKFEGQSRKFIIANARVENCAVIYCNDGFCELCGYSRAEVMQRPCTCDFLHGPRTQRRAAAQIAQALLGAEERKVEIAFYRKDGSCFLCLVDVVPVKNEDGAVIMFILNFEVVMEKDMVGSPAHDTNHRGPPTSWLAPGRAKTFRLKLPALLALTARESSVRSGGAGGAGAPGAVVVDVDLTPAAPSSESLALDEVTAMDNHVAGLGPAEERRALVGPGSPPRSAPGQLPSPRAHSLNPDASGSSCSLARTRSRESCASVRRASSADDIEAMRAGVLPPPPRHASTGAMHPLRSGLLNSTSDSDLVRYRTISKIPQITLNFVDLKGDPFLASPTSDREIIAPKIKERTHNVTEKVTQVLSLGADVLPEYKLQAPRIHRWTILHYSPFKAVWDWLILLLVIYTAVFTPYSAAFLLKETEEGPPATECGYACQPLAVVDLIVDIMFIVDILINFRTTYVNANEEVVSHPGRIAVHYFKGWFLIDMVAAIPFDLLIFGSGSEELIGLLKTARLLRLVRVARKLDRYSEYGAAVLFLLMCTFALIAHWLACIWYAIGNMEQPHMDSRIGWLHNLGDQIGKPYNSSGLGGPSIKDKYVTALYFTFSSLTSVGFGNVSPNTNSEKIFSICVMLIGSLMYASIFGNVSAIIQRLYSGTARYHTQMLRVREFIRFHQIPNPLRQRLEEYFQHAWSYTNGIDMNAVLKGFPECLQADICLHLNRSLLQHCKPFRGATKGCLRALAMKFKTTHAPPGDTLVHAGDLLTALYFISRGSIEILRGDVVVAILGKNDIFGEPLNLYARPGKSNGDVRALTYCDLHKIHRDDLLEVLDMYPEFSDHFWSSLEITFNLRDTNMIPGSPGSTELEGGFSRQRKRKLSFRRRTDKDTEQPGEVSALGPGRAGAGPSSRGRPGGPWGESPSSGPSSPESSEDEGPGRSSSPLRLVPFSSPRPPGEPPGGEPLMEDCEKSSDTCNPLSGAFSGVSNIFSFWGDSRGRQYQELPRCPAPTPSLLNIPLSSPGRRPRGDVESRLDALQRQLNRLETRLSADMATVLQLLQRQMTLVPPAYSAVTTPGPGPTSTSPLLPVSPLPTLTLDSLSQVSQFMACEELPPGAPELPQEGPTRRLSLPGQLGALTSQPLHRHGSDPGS

Substance “(S)-4-amino-7-fluoro-N-methyl-N-(6-(triflu oromethyl)-2,3-dihydr obenzofuran-3-yl)imi dazo[1,5-a]quinoxalin e-8-carboxamide [Example 29]” yielded an IC50 of 11.4 µM.
